Data published in PubChem BioAssay AID274 (DTP/NCI, 2004).
Several values for one entry are separate records, joined by “and”; a condition that tells them apart may be missing. Equal entries are not always repeated. Inconclusive results and toxic doses are left out. Rule for the calls: active = survival T/C of 150% or more; inactive = T/C below 125% in these data. Numbered stars: 1 amine (or outer) side, 2 acyl side, 3 side chain; on linkers, the order of the positions; unused ones are H or OH. Bridge positions count the residues as written; N and C are the ends. Square brackets hold non-standard residues; d marks the D form. Peptide text beside a SMILES is read from it. I, II: the chains in the order shown. Actinocin(9to1) = Cc1c2oc3c(C)ccc(C(=O)[*:1])c3nc-2c(C(=O)[*:2])c(N)c1=O; aThr = C[C@H](O)[C@H](N)C(=O)O; NMeV = CN[C@H](C(=O)O)C(C)C; Sar = CNCC(=O)O

Test system: BDF1 mice, Lewis lung carcinoma iv, survival T/C
Test: NCI In Vivo Anticancer Drug Screen. Data for tumor model Lewis Lung Carcinoma (intravenous) in B6D2F1 (BDF1) mice
Details: endpoint: median survival time, higher = longer survival
Protocol: The antitumor activity of compounds was measured in mice bearing transplantable tumors. Survival or tumor size were measured and the results are expressed as the measurement made in the treated group (T) divided by the measurement made in the vehicle treated control group (C). The tumor model used in this assay is Lewis Lung Carcinoma (intravenous) in B6D2F1 (BDF1) mice

[1] = dose: 25.0 mg/kg/injection, schedule: Q01DX009 (ip), vehicle: saline with Tween-80
[2] = dose: 50.0 mg/kg/injection, schedule: Q01DX009 (ip), vehicle: saline with Tween-80
[3] = dose: 100.0 mg/kg/injection, schedule: Q01DX009 (ip), vehicle: saline with Tween-80
[4] = dose: 6.25 mg/kg/injection, schedule: Q01DX009 (ip), vehicle: saline with Tween-80
[5] = dose: 12.5 mg/kg/injection, schedule: Q01DX009 (ip), vehicle: saline with Tween-80
[6] = dose: 3.12 mg/kg/injection, schedule: Q01DX009 (ip), vehicle: Klucel (hydroxypropylcellulose) (HPC)
[7] = dose: 200.0 mg/kg/injection, schedule: Q01DX009 (ip), vehicle: saline with Tween-80
[8] = dose: 3.13 mg/kg/injection, schedule: Q01DX009 (ip), vehicle: saline with Tween-80
[9] = dose: 0.78 mg/kg/injection, schedule: Q01DX009 (ip), vehicle: saline with Tween-80
[10] = dose: 1.56 mg/kg/injection, schedule: Q01DX009 (ip), vehicle: saline with Tween-80
[11] = dose: 3.12 mg/kg/injection, schedule: Q01DX009 (ip), vehicle: saline with Tween-80

Measured: T/C

CC1=C(/C=C/C(C)=C/C=C/C(C)=C/CO)C(C)(C)CCC1
inactive: dose: 4.0 mg/kg/injection, schedule: Q01DX005 (ip), vehicle: saline with Tween-80 95 % of control | dose: 8.0 mg/kg/injection, schedule: Q01DX005 (ip), vehicle: saline with Tween-80 95 % of control | dose: 16.0 mg/kg/injection, schedule: Q01DX005 (ip), vehicle: saline with Tween-80 95 % of control | dose: 32.0 mg/kg/injection, schedule: Q01DX005 (ip), vehicle: saline with Tween-80 102 % of control | dose: 64.0 mg/kg/injection, schedule: Q01DX005 (ip), vehicle: saline with Tween-80 102 % of control | dose: 128.0 mg/kg/injection, schedule: Q01DX005 (ip), vehicle: saline with Tween-80 98 % of control

O=C(NCCN1CC1)C(=O)NCCN1CC1
inactive: dose: 0.38 mg/kg/injection, schedule: Q01DX009 (ip), vehicle: saline 108 % of control | dose: 0.75 mg/kg/injection, schedule: Q01DX009 (ip), vehicle: saline 110 % of control | dose: 1.5 mg/kg/injection, schedule: Q01DX009 (ip), vehicle: saline 120 % of control | dose: 3.0 mg/kg/injection, schedule: Q01DX009 (ip), vehicle: saline 101 % of control

COc1ccc(CCNC(C)=O)cc1OC
inactive: dose: 25.0 mg/kg/injection, schedule: Q01DX009 (ip), vehicle: Klucel (hydroxypropylcellulose) (HPC) 90 % of control | dose: 50.0 mg/kg/injection, schedule: Q01DX009 (ip), vehicle: Klucel (hydroxypropylcellulose) (HPC) 94 % of control | dose: 100.0 mg/kg/injection, schedule: Q01DX009 (ip), vehicle: Klucel (hydroxypropylcellulose) (HPC) 103 % of control | dose: 200.0 mg/kg/injection, schedule: Q01DX009 (ip), vehicle: Klucel (hydroxypropylcellulose) (HPC) 105 % of control

CCCCCCCCCCCCCCCC[N+]1(C)CCN(SN2CC[N+](C)(CCCCCCCCCCCCCCCC)CC2)CC1
inactive: [1] 109 % of control | [2] 100 % of control | [3] 104 % of control

COC(=O)c1[nH]c(=O)[nH]c(=O)c1F
inactive: [4] 106 % of control | [5] 115 % of control | [1] 98 % of control

O=C1C(=O)c2cccnc2-c2ncccc21
inactive: dose: 0.78 mg/kg/injection, schedule: Q01DX009 (ip), vehicle: Klucel (hydroxypropylcellulose) (HPC) 116 % of control | dose: 1.56 mg/kg/injection, schedule: Q01DX009 (ip), vehicle: Klucel (hydroxypropylcellulose) (HPC) 91 % of control | [6] 100 % of control

CC(C)C(=O)OCC1OC(n2cnc3c(=S)nc(N)[nH]c32)C(OC(=O)C(C)C)C1OC(=O)C(C)C (centres undefined)
inactive: [6] 97 % of control | dose: 6.25 mg/kg/injection, schedule: Q01DX009 (ip), vehicle: Klucel (hydroxypropylcellulose) (HPC) 90 % of control

CCO/C=C1\SC(=S)N(c2ccccc2C)C1=O
inactive: [5] 96 % of control | [1] 94 % of control | [2] 100 % of control | [3] 106 % of control | [7] 99 % of control

CCC1CN2C(=N1)c1ccccc1-c1cc(Cl)ccc12 (centres undefined)
inactive: [8] 104 % of control and 118 % of control | [4] 109 % of control and 90 % of control | [5] 100 % of control | [1] 94 % of control and 107 % of control | [2] 102 % of control and 122 % of control

Nc1nc(=S)c2ncn(C3OC(COC(=O)c4ccc(Cl)cc4)C(OC(=O)c4ccc(Cl)cc4)C3OC(=O)c3ccc(Cl)cc3)c2[nH]1 (centres undefined)
inactive: dose: 18.75 mg/kg/injection, schedule: Q01DX009 (ip), vehicle: Klucel (hydroxypropylcellulose) (HPC) 103 % of control | dose: 37.5 mg/kg/injection, schedule: Q01DX009 (ip), vehicle: Klucel (hydroxypropylcellulose) (HPC) 106 % of control | dose: 150.0 mg/kg/injection, schedule: Q01DX009 (ip), vehicle: Klucel (hydroxypropylcellulose) (HPC) 89 % of control

CC12CC(C(=O)O)C3(O)CC(C)(C1)CC(C)(C2)C3 (centres undefined) (tested in a mixture with another compound)
inactive: [5] 99 % of control | [1] 86 % of control | [2] 89 % of control | [3] 94 % of control | [7] 99 % of control

O=c1c(O)c(-c2cc(O)c(O)c(O)c2)oc2cc(O)cc(O)c12
inactive: dose: 6.25 mg/kg/injection, schedule: Q01DX009 (ip), vehicle: other 88 % of control | dose: 12.5 mg/kg/injection, schedule: Q01DX009 (ip), vehicle: other 94 % of control | dose: 25.0 mg/kg/injection, schedule: Q01DX009 (ip), vehicle: other 93 % of control | dose: 50.0 mg/kg/injection, schedule: Q01DX009 (ip), vehicle: other 93 % of control | dose: 100.0 mg/kg/injection, schedule: Q01DX009 (ip), vehicle: other 115 % of control | dose: 200.0 mg/kg/injection, schedule: Q01DX009 (ip), vehicle: other 97 % of control

Cc1cc(NCCCCCCCNc2cc(C)nc3cc(N)ccc23)c2ccc(N)cc2n1
inactive: [9] 100 % of control | [10] 102 % of control | [11] 102 % of control | [4] 110 % of control | [5] 96 % of control

O=C(NO)c1cc(O)c(O)c(O)c1
inactive: dose: 25.0 mg/kg/injection, schedule: Q01DX009 (ip), vehicle: water 100 % of control | dose: 50.0 mg/kg/injection, schedule: Q01DX009 (ip), vehicle: water 100 % of control | dose: 100.0 mg/kg/injection, schedule: Q01DX009 (ip), vehicle: water 97 % of control | dose: 200.0 mg/kg/injection, schedule: Q01DX009 (ip), vehicle: water 97 % of control

c1ccc([I+]c2ccccc2)cc1
inactive: dose: 1.0 mg/kg/injection, schedule: Q01DX009 (ip), vehicle: saline 98 % of control | dose: 2.0 mg/kg/injection, schedule: Q01DX009 (ip), vehicle: saline 100 % of control | dose: 4.0 mg/kg/injection, schedule: Q01DX009 (ip), vehicle: saline 109 % of control

Cc1c2oc3c(C)ccc(C(=O)N[C@@H]4C(=O)N[C@H](C(C)C)C(=O)N5CCC[C@H]5C(=O)N(C)CC(=O)N(C)[C@@H](C(C)C)C(=O)O[C@H]4C)c3nc-2c(C(=O)N[C@@H]2C(=O)N[C@H](C(C)C)C(=O)N3CCC[C@H]3C(=O)N(C)CC(=O)N(C)[C@@H](C(C)C)C(=O)O[C@H]2C)c(N)c1=O (I: [aThr][dV]P[Sar][NMeV] / II: [aThr][dV]P[Sar][NMeV]; ester I:1-I:C, II:1-II:C; linker I:N-II:N via Actinocin(9to1))
inactive: dose: 65.0 micrograms/kg/injection, schedule: Q04DX003 (ip), vehicle: saline + alcohol 91 % of control | dose: 108.0 micrograms/kg/injection, schedule: Q04DX003 (ip), vehicle: saline + alcohol 92 % of control and 94 % of control | dose: 180.0 micrograms/kg/injection, schedule: Q04DX003 (ip), vehicle: saline + alcohol 97 % of control and 104 % of control | dose: 259.0 micrograms/kg/injection, schedule: Q01DX001 (ip), vehicle: saline + alcohol 94 % of control | dose: 300.0 micrograms/kg/injection, schedule: Q04DX003 (ip), vehicle: saline + alcohol 95 % of control and 106 % of control | dose: 432.0 micrograms/kg/injection, schedule: Q01DX001 (ip), vehicle: saline + alcohol 98 % of control

CCCCCCCCCCCCN1C(C)=CS/C1=C\C=C\c1scc(C)[n+]1CCCCCCCCCCCC
inactive: [9] 95 % of control | [10] 98 % of control | [11] 91 % of control

C[C@]12CC[C@H]3[C@@H](CC[C@]4(O)C[C@@H](O)CC[C@]34C=O)[C@@]1(O)CC[C@@H]2C1=CC(=O)OC1
inactive: dose: 12.5 mg/kg/injection, schedule: Q01DX009 (ip), vehicle: saline 96 % of control | dose: 25.0 mg/kg/injection, schedule: Q01DX009 (ip), vehicle: saline 108 % of control | dose: 50.0 mg/kg/injection, schedule: Q01DX009 (ip), vehicle: saline 108 % of control | dose: 100.0 mg/kg/injection, schedule: Q01DX009 (ip), vehicle: saline 100 % of control

CCCCCCCCCCCCCCC/C([O-])=N/[N+](C)(C)CC(C)O (centres undefined)
inactive: dose: 12.5 mg/kg/injection, schedule: Q01DX001 (ip), vehicle: saline 95 % of control | dose: 25.0 mg/kg/injection, schedule: Q01DX001 (ip), vehicle: saline 96 % of control | dose: 50.0 mg/kg/injection, schedule: Q01DX001 (ip), vehicle: saline 97 % of control | dose: 100.0 mg/kg/injection, schedule: Q01DX001 (ip), vehicle: saline 104 % of control | dose: 200.0 mg/kg/injection, schedule: Q01DX001 (ip), vehicle: saline 108 % of control | dose: 400.0 mg/kg/injection, schedule: Q01DX001 (ip), vehicle: saline 102 % of control

Cc1cc2nc(Cc3nc4cc(C)c(C)cc4[nH]3)[nH]c2cc1C
inactive: [5] 95 % of control | [1] 109 % of control | [2] 97 % of control and 104 % of control | [3] 100 % of control

NC(N)=NC(N)=Nc1ccc(-c2ccc(N=C(N)N=C(N)N)cc2)cc1
inactive: [9] 110 % of control | [10] 110 % of control | [8] 99 % of control | [4] 90 % of control | [5] 113 % of control
